Measurements taken from patent US10793526B2, “Hydantoin derivative compounds, methods of use and methods of treatment” (University of South Florida, priority 2016, dated 2020).
Read-outs that look alike come from different tables or passages of the source.

Key:
[1] = system: methicillin-resistant S. epidermidis (MRSE, RP62A); experiment: Minimum inhibitory concentration (MIC) assay, MRSE; format: cell-based, Staphylococcus epidermidis; conditions: Gram positive, 16 h incubation; for MIC: Staphylococcus epidermidis, MRSE, read-out: MIC (μg/mL) MRSE
Method: (§1) Minimum inhibitory concentrations (MICs) assay.^2
(§2) All compounds were tested against six different bacteria strains: methicillin-resistant S. aureus (MRSA, ATCC 33591), E. coli (ATCC 25922), methicillin-resistant S. epidermidis (MRSE, RP62A), K. pneumoniae (ATCC 13383), vancomycin-resistant Enterococcus faecalis (VREF, ATCC 700802), P. aeruginosa (ATCC 27853). One colony of each bacteria was inoculated in 4 mL TSB buffer at 37° C. overnight, which was then diluted 100 times, and the bacteria were allowed to grow to the mid-logarithmic phase. 50 μL hydantoin compounds in 2-fold serial dilution of TSB were added in the 96-well plate, then 50 μL diluted bacterial in TSB medium (1×10^6 CFU/mL) was added to each well. After 16 h of incubation at 37° C., the absorption at 600 nm wavelength on a Biotek Synergy HT microtiter plate reader was recorded. Minimum inhibitory concentrations were determined as the lowest concentrations that inhibited bacteria growth completely.

[2] = system: P. aeruginosa (ATCC 27853); experiment: Minimum inhibitory concentration (MIC) assay, P. aeruginosa; format: cell-based, Pseudomonas aeruginosa; conditions: for MIC: Pseudomonas aeruginosa, ATCC27853, read-out: MIC (μg/mL) P.A.; for MIC / MIC (μg/mL) P.A.: Gram negative, ATCC 27853, 16 h incubation
Method: as §1, §2

[3] = system: panel of Gram-positive and Gram-negative bacteria; experiment: Antimicrobial activity against the whole panel of bacteria; format: cell-based; conditions: for antimicrobial activity across the tested bacterial strains: all tested strains; for antibacterial activity of compounds with HPLC RT values less than 26 min: statement relating activity to retention time
Method: as §1, §2

[4] = system: vancomycin-resistant Enterococcus faecalis (VREF, ATCC 700802); experiment: Minimum inhibitory concentration (MIC) assay, VREF; format: cell-based; conditions: 16 h incubation; for MIC: Enterococcus faecalis, ATCC700802, Gram positive, read-out: MIC (μg/mL) VREF
Method: as §1, §2

[5] = system: methicillin-resistant S. aureus (MRSA, ATCC 33591); experiment: Minimum inhibitory concentration (MIC) assay, MRSA; format: cell-based, Staphylococcus aureus; conditions: for MIC: Staphylococcus aureus
Method: as §1, §2

[6] = system: K. pneumoniae (ATCC 13383); experiment: Minimum inhibitory concentration (MIC) assay, K. pneumoniae; format: cell-based, Klebsiella pneumoniae; conditions: 16 h incubation; for MIC: Klebsiella pneumoniae, ATCC13383, Gram negative, read-out: MIC (μg/mL) K.P.
Method: as §1, §2

[7] = system: E. coli (ATCC 25922); experiment: Minimum inhibitory concentration (MIC) assay, E. coli; format: cell-based, Escherichia coli; conditions: 16 h incubation; for MIC: Escherichia coli, ATCC25922, Gram negative, read-out: MIC (μg/mL) E. coli
Method: as §1, §2

[8] = system: red blood cells (RBCs) of mice; experiment: Hemolytic assay; format: cell-based
Method: Fresh red blood cells (RBCs) of mice were washed with 1×PBS buffer and centrifuged 10 min at 3500 rpm for 3 times until the supernatant was clear, then RBCs were diluted into 5% v/v suspension in 1×PBS. 50 μL compounds in PBS were 2-fold serially diluted in a 96-well plate, and incubated with 50 μL RBCs suspension for 1 h at 37° C. The mixture was then centrifuged for 10 min at 3500 rpm. Subsequently, 30 μL of the supernatant was added to 100 μL PBS, then the absorbance of mixture was read on a Biotek Synergy HT plate reader at 540 nm. The hemolytic activity was calculated by the formula % hemolysis=(Abssample−AbsPBS)/(AbsTriton−AbsPBS)×100%. 1% Triton X-100 were used as the positive control and 1×PBS buffer was used as the negative control.

[9] = Gram positive, ATCC 33591, 16 h incubation, read-out: MIC (μg/mL) MRSA
[10] = hemolytic activity, mouse RBCs, 1 h at 37° C.

MIC [1] [µg/mL]	MIC [2] [µg/mL]	MIC [4] [µg/mL]	MIC [5, 9] [µg/mL]	MIC [6] [µg/mL]	MIC [7] [µg/mL]	MIC (μg/mL) P.A. [2] [µg/mL]	MIC (μg/mL) MRSE [1] [µg/mL]	MIC (μg/mL) VREF ([4]; Gram positive) [µg/mL]	MIC (μg/mL) MRSA ([5]; Gram positive, ATCC 33591, 16 h incubation) [µg/mL]	MIC of MRSA ([5]; Table 2) [µg/mL]	MIC (μg/mL) K.P. ([6]; Gram negative) [µg/mL]	MIC (μg/mL) E. coli ([7]; Gram negative) [µg/mL]	MIC ([5]; Table 2, read-out: MIC of MRSA) [µg/mL]	MIC ([3]; range over most strains of the panel, read-out: MICs against most of bacteria) [µg/mL]	SMILES	antimicrobial activity across the tested bacterial strains [3]	antibacterial activity of compounds with HPLC RT values less than 26 min [3]	HC50 [8, 10] [µg/mL]	activity toward Pseudomonas aeruginosa ([2]; under the tested condition)	HC50 [8] [µg/mL]
> 50	> 50	> 50	> 50	> 50	> 50										CCCCCCCCCC(=O)N[C@@H](CCCCN)CN1CC(=O)N(c2ccc(OC)cc2)C1=O [Compound 17, (S)—N-(6-amino-1-(3-(4-methoxyphenyl)-2,4-dioxoimidazolidin-1-yl)hexan-2-yl)decanamide]		no apparent antibacterial activity			
6.25	6.25	12.5		6.25	6.25								6.25		CCCCCCCCCC(=O)N[C@@H](CCCCN)CN1CC(=O)N(c2cccc(Cl)c2)C1=O [Compound 21, (S)—N-(6-amino-1-(3-(3-chlorophenyl)-2,4-dioxoimidazolidin-1-yl)hexan-2-yl)decanamide]			100		
12.5	> 50	12.5	12.5	> 50	> 50										CCCCCCCCCCCCCC(=O)N[C@@H](CCCCN)CN1CC(=O)N(c2cccc(Cl)c2)C1=O [Compound 23, (S)—N-(6-amino-1-(3-(3-chlorophenyl)-2,4-dioxoimidazolidin-1-yl)hexan-2-yl)tetradecanamide]					
12.5	> 50	12.5	12.5	> 50	> 50										CCCCCCCCCCCCCCCC(=O)N[C@@H](CCCCN)CN1CC(=O)N(c2cccc(Cl)c2)C1=O [Compound 24, (S)—N-(6-amino-1-(3-(3-chlorophenyl)-2,4-dioxoimidazolidin-1-yl)hexan-2-yl)palmitamide]					
> 50	> 50	> 50	> 50	> 50	> 50										CCCCCCCCCCCC(=O)N[C@@H](Cc1ccccc1)CN1CC(=O)N(c2cccc(Cl)c2)C1=O [Compound 25, (S)—N-(1-(3-(3-chlorophenyl)-2,4-dioxoimidazolidin-1-yl)-3-phenylpropan-2-yl)dodecanamide]	fails to show any antimicrobial activity	no apparent antibacterial activity			
6.25	> 50	12.5	12.5	25	6.25									6.25 to 25	O=C1CN(/N=C/c2ccc([N+](=O)[O-])o2)C(=O)N1 [Compound 26, nitrofurantoin, reference compound]					

The next lines start with the compound.

SMILES	MIC [1] [µg/mL]	MIC [2] [µg/mL]	MIC [4] [µg/mL]	MIC [5, 9] [µg/mL]	MIC [6] [µg/mL]	MIC [7] [µg/mL]	MIC (μg/mL) P.A. [2] [µg/mL]	MIC (μg/mL) MRSE [1] [µg/mL]	MIC (μg/mL) VREF ([4]; Gram positive) [µg/mL]	MIC (μg/mL) MRSA ([5]; Gram positive, ATCC 33591, 16 h incubation) [µg/mL]	MIC of MRSA ([5]; Table 2) [µg/mL]	MIC (μg/mL) K.P. ([6]; Gram negative) [µg/mL]	MIC (μg/mL) E. coli ([7]; Gram negative) [µg/mL]	MIC ([5]; Table 2, read-out: MIC of MRSA) [µg/mL]	MIC ([3]; range over most strains of the panel, read-out: MICs against most of bacteria) [µg/mL]	antimicrobial activity across the tested bacterial strains [3]	antibacterial activity of compounds with HPLC RT values less than 26 min [3]	HC50 [8, 10] [µg/mL]	activity toward Pseudomonas aeruginosa ([2]; under the tested condition)	HC50 [8] [µg/mL]
CCCCCCCCCC(=O)N[C@@H](CCCCN)CN1CC(=O)N(CC)C1=O [Compound 1, (S)—N-(6-amino-1-(3-ethyl-2,4-dioxoimidazolidin-1-yl)hexan-2-yl)decanamide]	> 50	> 50	> 50	> 50	> 50	> 50										doesn't exhibit any activity	no apparent antibacterial activity			
CCCCCCCCCCCC(=O)N[C@@H](CCCCN)CN1CC(=O)N(CC)C1=O [Compound 2, (S)—N-(6-amino-1-(3-ethyl-2,4-dioxoimidazolidin-1-yl)hexan-2-yl)dodecanamide]	> 50	> 50	> 50	> 50	> 50	12.5											no apparent antibacterial activity			
CCCCCCCCCCCCCC(=O)N[C@@H](CCCCN)CN1CC(=O)N(CC)C1=O [Compound 3, (S)—N-(6-amino-1-(3-ethyl-2,4-dioxoimidazolidin-1-yl)hexan-2-yl)tetradecanamide]	6.25	12.5	6.25	6.25	6.25	3.12	12.5									comparable activity to nitrofurantoin against most strains		90		
CCCCCCCCCCCCCCCC(=O)N[C@@H](CCCCN)CN1CC(=O)N(CC)C1=O [Compound 4, (S)—N-(6-amino-1-(3-ethyl-2,4-dioxoimidazolidin-1-yl)hexan-2-yl)palmitamide]	3.12	> 50	3.12	3.12	12.5	3.12											no apparent antibacterial activity		abolishes its activity	
CCCCCCCCCC(=O)N[C@@H](CCCCN)CN1CC(=O)N(CCCC)C1=O [Compound 5, (S)—N-(6-amino-1-(3-butyl-2,4-dioxoimidazolidin-1-yl)hexan-2-yl)decanamide]	> 50	> 50	> 50	> 50	> 50	> 50										doesn't have any antimicrobial activity	no apparent antibacterial activity			
CCCCCCCCCCCC(=O)N[C@@H](CCCCN)CN1CC(=O)N(CCCC)C1=O [Compound 6, (S)—N-(6-amino-1-(3-butyl-2,4-dioxoimidazolidin-1-yl)hexan-2-yl)dodecanamide]	25	25	25	12.5	12.5	6.25											no apparent antibacterial activity	80		
CCCCCCCCCC(=O)N[C@@H](CCCCN)CN1CC(=O)N(C2CCCCC2)C1=O [Compound 9, (S)—N-(6-amino-1-(3-cyclohexyl-2,4-dioxoimidazolidin-1-yl)hexan-2-yl)decanamide]	> 50	> 50	> 50	25	25	12.5										starts to show activity toward a few bacterial strains	no apparent antibacterial activity			
CCCCCCCCCCCC(=O)N[C@@H](CCCCN)CN1CC(=O)N(C2CCCCC2)C1=O [Compound 10, (S)—N-(6-amino-1-(3-cyclohexyl-2,4-dioxoimidazolidin-1-yl)hexan-2-yl)dodecanamide]	6.25	12.5	12.5	6.25	6.25	6.25												100		
CCCCCCCCCC(=O)N[C@@H](CCCCN)CN1CC(=O)N(C23CC4CC(CC(C4)C2)C3)C1=O [Compound 13, N—((S)-1-(3-((3R,5R,7R)-adamantan-1-yl)-2,4-dioxoimidazolidin-1-yl)-6-aminohexan-2-yl) decanamide]							12.5	6.25	12.5	6.25	6.25	6.25	6.25			exhibits decent activity across the panel of bacteria				125
